In PMC11554305, “Functional identification of soluble uric acid as an endogenous inhibitor of CD38” (eLife, 2024):

Experiments:
[1] = Moderate sUA supplementation in mice (plasma, whole blood, tissue and serum levels); type: in vivo, mouse; settings: for Interference with whole blood NAD+ metabolism: OA or inosine alone, 1-day treatment, inflammatory conditions
Description: Plasma sUA levels in mice were increased to the minimum physiological levels of humans by moderate sUA supplementation. For 1-day sUA supplementation, WT and CD38 KO mice received oral administration of saline, OA (1.5 g/kg), or OA (1.5 g/kg) plus inosine (1.5 g/kg), the gavage volume was 5 mL/kg. Drug suspension in saline was freshly prepared and warmed to 37°C before each treatment. The mice received the first treatment on the evening (19:00) of the first day and the second treatment on the morning (9:00) of the second day. For 3- or 7-day sUA supplementation, WT and CD38 KO mice received the same treatment twice daily from the evening of the first day to the morning of the last day. Four hours after the last treatment, the mice were sacrificed and whole blood, serum, plasma, and tissues were collected for metabolic studies. For immunological studies, mice were stimulated with different ligands 2 hr after the second treatment on the morning (9:00) of the second day.
WT mice received oral administration of saline, OA, or OA plus inosine (1-day supplementation model, as described above). One day (28 hr) or 3 days (76 hr) after the second treatment, the mice were sacrificed and whole blood and plasma were collected.
The collected whole blood samples were immediately diluted 10-fold in 5% ice-cold PCA and homogenized on ice. After 10 min centrifugation at 15,000 rpm, 4°C, the supernatant was subpackaged for measurement or –80°C storage. For NAD^+ measurement in whole blood, the supernatant was handled without freezing and thawing and was measured within 24 hr of sample collection. For measurement of plasma sUA, after sample collection, we immediately diluted the plasma with 5% ice-cold PCA, after vortex, samples were centrifuged at 15,000 rpm, 4°C for 10 min, the collected supernatant was used for the subsequent handling and measurement within 24 hr.
After the collection of blood samples, the mice were immediately perfused with ice-cold sterile PBS. The tissue samples were collected, dried with tissue paper, and weighed. All the tissue samples were immediately homogenized in 5% ice-cold PCA on ice, then centrifuged at 15,000 rpm, 4°C for 10 min. The supernatant was collected and stored at –80°C until further handling for measurement (see LC-MS/MS analysis).
As mentioned above, samples (cells, tissues, blood, or reaction buffer) were treated with ice-cold PCA, after extraction and centrifugation, the collected supernatant was appropriately diluted in 5% ice-cold PCA when applicable, and then was vortexed for 30 s and centrifuged at 15,000 rpm, 4°C for 5 min. Afterward, 30 μL supernatant was added into 200 μL 5 mM ammonium formate containing internal standards at indicated concentrations. Then, all the samples were vortexed for 30 s and centrifuged at 15,000 rpm, 4°C for 5 min again, the final supernatant was used for subsequent measurement. All the samples after handling were immediately analyzed in this study without freezing and thawing.
The LC-MS/MS system consisted of a triple quadrupole LCMS-8050 (Shimadzu) and an LC-30A system (Shimadzu). NAD^+, NMN, and the N-cyclohexyl benzamide (NCB, internal standard, 5 ng/mL) were eluted on Altlantis HILIC Silica (2.1×150 mm, 5 μm) at 40°C using an isocratic mobile phase containing 60% water with 0.1% formic acid and 40% acetonitrile with 0.1% formic acid at 0.4 mL/min. The selected transitions of m/z were 664.10 → 136.10 for NAD^+, 334.95 → 123.15 for NMN, and 204.10 → 122.20 for NCB in positive ion mode. NAD^+ and NMN were measured independently in this study, as their peaks were hardly separated within a short time.
sUA, cADPR, and FYU-981 (internal standard, 1 μM, Fuji Yakuhin Co., Ltd.) were eluted on CAPCELL PAK C8 TYPE UG 120 (2×150 mm, 5 μm) at 40°C. sUA and FYU-981 were separated using a gradient mobile phase containing water with 0.1% formic acid (A) and acetonitrile with 0.1% formic acid (B) at 0.4 mL/min. […]

[2] = test system: cLPS-induced systemic inflammation; test: cLPS-induced systemic inflammation; type: in vivo, mouse; settings: WT mice; for Effect on cLPS-induced systemic inflammation: OA or inosine alone, 1-day oral treatment
Description: Plasma sUA levels in WT and CD38 KO mice were increased to the minimum physiological levels of humans by 1-day sUA supplementation (OA plus inosine). Two hours after the last treatment of OA, or OA plus inosine, the mice were intraperitoneally injected with sterile PBS or cLPS (2 or 20 mg/kg), the injection volume was 3 mL/kg. Four hours (20 mg/kg) or 6 hr (2 mg/kg) after stimulation, the mice were sacrificed and whole blood, plasma, and serum were collected.
(§1) Human IL-1β, mouse IL-1β, IL-6, IL-18, TNF-α, and CXCL1 levels were measured according to the protocols provided by the manufacturer. Serum samples were diluted before ELISA when applicable. In this study, all the samples were frozen after collection and thawed before ELISA.

[3] = test system: MSU crystal-induced peritonitis; test: MSU crystal-induced peritonitis; type: in vivo; settings: WT mice, MSU crystals 2 mg/mouse; for Effect on MSU crystal-induced peritonitis: OA or inosine alone, 1-day oral treatment
Description: Plasma sUA levels in WT and CD38 KO mice were increased to the minimum physiological levels of humans by 1-day sUA supplementation (OA plus inosine). Two hours after the last treatment of OA, or OA plus inosine, the mice were intraperitoneally injected with sterile PBS or MSU crystals (2 mg/mouse), and the injection volume was 200 μL/mouse. Six hours after stimulation, the mice were sacrificed and blood samples were collected. For each mouse, the peritoneal cavity was washed with 5 mL ice-cold sterile PBS, the supernatant was collected by centrifugation for subsequent ELISA, and cell pellets were used for total viable cell count by Trypan Blue staining. In brief, cell pellet from 1.5 mL of peritoneal lavage fluid was resuspended in RBC lysis buffer for 30 s, sterile PBS (ninefold volume) was added to terminate lysis. Afterward, the cells were centrifuged at 1000 rpm for 5 min and resuspended in sterile PBS for viable cell count. For neutrophil count, peritoneal lavage fluid was directly used for smears after appropriate dilution, and subsequently, Wright-Giemsa staining was performed according to the protocol provided by the manufacturer.
as §1

[4] = 6 hr, 1-day sUA supplementation, not in CD38 KO mice

O=c1[nH]cnc2c1ncn2[C@@H]1O[C@H](CO)[C@@H](O)[C@H]1O [Inosine, inosine, reference compound]
Interference with whole blood NAD+ metabolism ([1]; WT mice): had no interference
Effect on cLPS-induced systemic inflammation ([2]; cLPS 2 mg/kg): hardly affected
Effect on MSU crystal-induced peritonitis [3]: hardly affected

O=C(O)c1nc(=O)[nH]c(=O)[nH]1 [OA, oxonic acid, reference compound]
Interference with whole blood NAD+ metabolism ([1]; WT mice): had no interference
Effect on plasma sUA levels ([1]; mice, short-term administration of OA alone): failed to increase plasma sUA levels
Effect on cLPS-induced systemic inflammation ([2]; cLPS 2 mg/kg): hardly affected
Effect on MSU crystal-induced peritonitis [3]: hardly affected

O=c1[nH]c(=O)c2[nH]c(=O)[nH]c2[nH]1 [sUA, uric acid]
Whole blood NAD+ levels ([1]; 1- or 3-day moderate sUA supplementation (OA plus inosine), WT mice, not in CD38 KO mice): slightly but significantly increased
cADPR production in whole blood ([1]; 1-day sUA supplementation, inflammatory conditions (cLPS 2 mg/kg), not under non-inflammatory conditions): decrease in cADPR production
NAD+ levels in the brain and heart ([1]; 7-day sUA-supplementation model): appeared to be elevated
Plasma sUA and whole blood NAD+ after sUA release ([1]; WT mice, 1-day or 3-day release after 1-day supplementation): gradually returned to their initial levels
concentration at 4 h ([1]; mouse, plasma, mice, oral OA 1.5 g/kg plus inosine 1.5 g/kg, read-out: Plasma sUA levels in the sUA-supplementation models): ~120 µM
NMN levels in vivo ([1]; sUA supplementation, whole blood): minor effect on NMN levels
Serum IL-1β production ([1]; sUA-supplementation models within 7 days): did not show an increase
cLPS-induced production of serum IL-1β and IL-18 ([2]; cLPS 2 mg/kg, 6 hr, 1-day sUA supplementation (OA plus inosine), abrogated in CD38 KO mice): suppressed
Serum TNF-α levels ([2]; cLPS 2 mg/kg, 6 hr, 1-day sUA supplementation): without affecting
High-dose cLPS-induced systemic inflammation ([2]; cLPS 20 mg/kg, 4 hr): hardly limited
Production of IL-1β and IL-6, peritoneal lavage fluid [3, 4]: reduced the production of IL-1β and IL-6
Recruitment of viable cells and neutrophils, peritoneal lavage fluid [3, 4]: inhibited the recruitment of viable cells and neutrophils
